# Like-named read-outs stand apart in the source and are kept apart here.
# Key:
# VZV (YS) = assay: Antiviral activity, virus plaque formation in HEL cells; format: cell-based, varicella-zoster virus; conditions: for Selectivity index: HEL
# Method: (§1) The anti-herpesvirus activity of D-cyclohexene G and L-cyclohexene G and the respective adenine analogues was determined in human embryonic skin muscle fibroblast (E6SM: HSV-1, HSV-2) and in human embryonic lung (HEL) cells [varicella-zoster virus (VZV), cytomegalovirus (CMV)] (Table I).
# HSV-1 (McIntyre) = assay: Antiviral activity, virus-induced cytopathogenicity in E6SM cell cultures; format: cell-based; conditions: for IC50: Human alphaherpesvirus 1, read-out: Activity: minimum inhibitory concentration required to reduce virus-induced cytopathogenicity by 50% (IC50), E6SM cell cultures; for Selectivity index: E6SM
# Method: as §1
# HSV-1 (TK−/TKf VMW1837) = assay: as above; format: cell-based; conditions: for IC50: Human alphaherpesvirus 1, E6SM, read-out: Activity: minimum inhibitory concentration required to reduce virus-induced cytopathogenicity by 50% (IC50); for Selectivity index: HSV-1 (TK−/TKf VMW1837), E6SM
# Method: as §1
# HSV-1 (TK−KOS ACVf) = assay: as above; format: cell-based; conditions: for IC50: Human alphaherpesvirus 1, E6SM, read-out: Activity: minimum inhibitory concentration required to reduce virus-induced cytopathogenicity by 50% (IC50); for Selectivity index: HSV-1 (TK−KOS ACVf), E6SM
# Method: as §1
# HSV-2 (196) = assay: as above; format: cell-based; conditions: for IC50: Human alphaherpesvirus 2, read-out: Activity: minimum inhibitory concentration required to reduce virus-induced cytopathogenicity by 50% (IC50), E6SM cell cultures; for Selectivity index: E6SM
# Method: as §1
# HSV-1 (KOS) = assay: as above; format: cell-based; conditions: for IC50: Human alphaherpesvirus 1, read-out: Activity: minimum inhibitory concentration required to reduce virus-induced cytopathogenicity by 50% (IC50), E6SM cell cultures; for Selectivity index: E6SM
# Method: as §1
# HSV-2 (G) = assay: as above; format: cell-based; conditions: for IC50: Human alphaherpesvirus 2, read-out: Activity: minimum inhibitory concentration required to reduce virus-induced cytopathogenicity by 50% (IC50), E6SM cell cultures; for Selectivity index: E6SM
# Method: as §1
# HSV-1 (F) = assay: as above; format: cell-based; conditions: for IC50: Human alphaherpesvirus 1, read-out: Activity: minimum inhibitory concentration required to reduce virus-induced cytopathogenicity by 50% (IC50), E6SM cell cultures; for Selectivity index: E6SM
# Method: as §1
# HSV-2 (Lyons) = assay: as above; format: cell-based; conditions: for IC50: Human alphaherpesvirus 2, read-out: Activity: minimum inhibitory concentration required to reduce virus-induced cytopathogenicity by 50% (IC50), E6SM cell cultures; for Selectivity index: E6SM
# Method: as §1
# HEL [1] = assay: Cytotoxicity, cell growth; conditions: HEL (footnote b)
# VZV (OKA) = assay: microbe, parasite or virus in culture; format: cell-based, varicella-zoster virus; conditions: for IC50: Human alphaherpesvirus 3, HEL, read-out: Activity: inhibitory concentration required to reduce virus plaque formation by 50% (IC50); for Selectivity index: VZV (OKA), HEL
# Method: as §1
# VZV (TK−YS/R) = assay: microbe, parasite or virus in culture; format: cell-based, varicella-zoster virus; conditions: for IC50: Human alphaherpesvirus 3, HEL, read-out: Activity: inhibitory concentration required to reduce virus plaque formation by 50% (IC50); for Selectivity index: VZV (TK−YS/R), HEL
# Method: as §1
# VZV (TK−07/1) = assay: microbe, parasite or virus in culture; format: cell-based, varicella-zoster virus; conditions: for IC50: Human alphaherpesvirus 3, HEL, read-out: Activity: inhibitory concentration required to reduce virus plaque formation by 50% (IC50); for Selectivity index: VZV (TK−07/1), HEL
# Method: as §1
# HEL [2] = assay: Cytotoxicity, HEL (footnote c not given); conditions: HEL (footnote c, not defined)
# Method: as §1
# HeLa = assay: Cytotoxicity, alteration of cell morphology; format: cell-based
# [3] = Cytotoxicity, alteration of cell morphology
# Method: as §1
# Vero = assay: Cytotoxicity, alteration of cell morphology; format: cell-based
# CMV (AD 169) = assay: Antiviral activity, virus plaque formation in HEL cells; format: cell-based, cytomegalovirus; conditions: for IC50: Human betaherpesvirus 5, read-out: Activity: inhibitory concentration required to reduce virus plaque formation by 50% (IC50), HEL cells, virus input 20 PFU; for Selectivity index: HEL
# Method: as §1
# CMV (Davis) = assay: as above; format: cell-based, cytomegalovirus; conditions: for IC50: Human betaherpesvirus 5, read-out: Activity: inhibitory concentration required to reduce virus plaque formation by 50% (IC50), HEL cells, virus input 20 PFU; for Selectivity index: HEL
# Method: as §1
# VZV and CMV = assay: Potency against VZV and CMV; format: cell-based
# Method: as §1
# [4] = Human alphaherpesvirus 3, read-out: Activity: inhibitory concentration required to reduce virus plaque formation by 50% (IC50), VZV (YS), HEL cells, virus input 20 PFU
smiles,measurement,setting,value
"Nc1nc2c(ncn2COCCO)c(=O)[nH]1 [Acyclovir, reference compound]",IC50,VZV (YS); [4],1.1 µg/mL
same,IC50,HSV-1 (McIntyre),0.005 µg/mL
same,IC50,HSV-1 (TK−/TKf VMW1837),0.07 µg/mL
same,IC50,HSV-1 (TK−KOS ACVf),9.6 µg/mL
same,IC50,HSV-2 (196),0.02 µg/mL
same,IC50,HSV-1 (KOS),0.01 µg/mL
same,IC50,HSV-2 (G),0.02 µg/mL
same,IC50,HSV-1 (F),0.003 µg/mL
same,IC50,HSV-2 (Lyons),0.02 µg/mL
"O=c1[nH]c(=O)n([C@H]2C[C@H](O)[C@@H](CO)O2)cc1/C=C/Br [Brivudin, reference compound]",Cytotoxic concentration required to reduce cell growth by 50%,HEL [1],>50 µg/mL
same,IC50,VZV (OKA),0.003 µg/mL
same,IC50,VZV (TK−YS/R),> 50 µg/mL
same,IC50,VZV (TK−07/1),> 20 µg/mL
same,IC50,"VZV (YS); Human alphaherpesvirus 3, HEL, read-out: Activity: inhibitory concentration required to reduce virus plaque formation by 50% (IC50)",0.03 µg/mL
same,Cytotoxicity (concentration),HEL [2],>200 µg/mL
same,Minimum cytotoxic concentration causing a microscopically detectable alteration of cell morphology,HeLa,≧400 μg/ml
same,Minimum cytotoxic concentration causing a microscopically detectable alteration of cell morphology,[3]; E8SM,≧400 μg/ml
same,Minimum cytotoxic concentration causing a microscopically detectable alteration of cell morphology,Vero,≧400 μg/ml
same,IC50,HSV-1 (McIntyre),0.001 µg/mL
same,IC50,HSV-1 (TK−/TKf VMW1837),> 80 µg/mL
same,IC50,HSV-1 (TK−KOS ACVf),> 80 µg/mL
same,IC50,HSV-2 (196),> 80 µg/mL
same,IC50,HSV-1 (KOS),0.001 µg/mL
same,IC50,HSV-2 (G),> 80 µg/mL
same,IC50,HSV-1 (F),0.001 µg/mL
same,IC50,HSV-2 (Lyons),> 80 µg/mL
"Nc1ccn(C[C@@H](CO)OCP(=O)(O)O)c(=O)n1 [Cidolovir, reference compound]",Cytotoxic concentration required to reduce cell growth by 50%,HEL [1],>50 µg/mL
same,Cytotoxicity (concentration),HEL [2],>50 µg/mL
same,IC50,CMV (AD 169),0.08 µg/mL
same,IC50,CMV (Davis),0.2 µg/mL
"Nc1ncnc2c1ncn2[C@@H]1C=C[C@H](CO)[C@@H](O)C1 [Compound 36, 9-[(1S,4R,5S)-5-Hydroxy-4-hydroxymethyl-2-cyclohexenyl]adenine]",melting point,,90 to 92 °C
"Nc1nc2c(ncn2[C@@H]2C=C[C@H](CO)[C@@H](O)C2)c(=O)[nH]1 [D-cyclohexenyl G, 9-[(1S,4R,5S)-5-hydroxy-4-hydroxymethyl-2-cyclohexenyl]guanine]",Cytotoxic concentration required to reduce cell growth by 50%,HEL [1],>20 µg/mL
same,IC50,VZV (OKA),0.64 µg/mL
same,Selectivity index,VZV (OKA),>30
same,IC50,VZV (TK−YS/R),2.8 µg/mL
same,Selectivity index,VZV (TK−YS/R),>7
same,IC50,VZV (TK−07/1),2.1 µg/mL
same,Selectivity index,VZV (TK−07/1),>10
same,IC50,VZV (YS); [4],0.49 µg/mL
same,Selectivity index,VZV (YS); VZV (YS),>40
same,Cytotoxicity (concentration),HEL [2],11 µg/mL
same,Toxicity in four different cell lines,"HeLa, Vero, E6SM, HEL",did not show toxicity
same,Selectivity index,CMV (AD 169),>30
same,IC50,CMV (AD 169),0.6 µg/mL
same,Selectivity index,CMV (Davis),>25
same,IC50,CMV (Davis),0.8 µg/mL
same,Minimum cytotoxic concentration causing a microscopically detectable alteration of cell morphology,HeLa,400 μg/ml
same,Minimum cytotoxic concentration causing a microscopically detectable alteration of cell morphology,[3]; E8SM,>400 μg/ml
same,Minimum cytotoxic concentration causing a microscopically detectable alteration of cell morphology,Vero,400 μg/ml
same,Selectivity index,HSV-1 (McIntyre),>1.10^5
same,IC50,HSV-1 (McIntyre),0.004 µg/mL
same,Selectivity index,HSV-1 (TK−/TKf VMW1837),>4.10^4
same,IC50,HSV-1 (TK−/TKf VMW1837),0.01 µg/mL
same,Selectivity index,HSV-1 (TK−KOS ACVf),>1.10^3
same,IC50,HSV-1 (TK−KOS ACVf),0.38 µg/mL
same,Selectivity index,HSV-2 (196),>5.10^3
same,IC50,HSV-2 (196),0.07 µg/mL
same,Selectivity index,HSV-1 (KOS),>2.10^5
same,IC50,HSV-1 (KOS),0.002 µg/mL
same,Selectivity index,HSV-2 (G),>8.10^3
same,IC50,HSV-2 (G),0.05 µg/mL
same,Selectivity index,HSV-1 (F),>2.10^5
same,IC50,HSV-1 (F),0.002 µg/mL
same,Selectivity index,HSV-2 (Lyons),>5.10^3
same,IC50,HSV-2 (Lyons),0.07 µg/mL
"Nc1nc(O)c2ncn(COC(CO)CO)c2n1 [Ganciclovir, reference compound]",Cytotoxic concentration required to reduce cell growth by 50%,HEL [1],>50 µg/mL
same,Cytotoxicity (concentration),HEL [2],>50 µg/mL
same,IC50,CMV (AD 169),0.6 µg/mL
same,IC50,CMV (Davis),0.8 µg/mL
same,Minimum cytotoxic concentration causing a microscopically detectable alteration of cell morphology,[3]; human,>100 μg/ml
same,IC50,HSV-1 (McIntyre),0.001 µg/mL
same,IC50,HSV-1 (TK−/TKf VMW1837),0.01 µg/mL
same,IC50,HSV-1 (TK−KOS ACVf),0.48 µg/mL
same,IC50,HSV-2 (196),0.001 µg/mL
same,IC50,HSV-1 (KOS),0.001 µg/mL
same,IC50,HSV-2 (G),0.002 µg/mL
same,IC50,HSV-1 (F),0.001 µg/mL
same,IC50,HSV-2 (Lyons),0.001 µg/mL
"Nc1nc2c(ncn2[C@H]2C=C[C@@H](CO)[C@H](O)C2)c(=O)[nH]1 [L-cyclohexenyl G, 9-[(1R,4S,5R)-5-Hydroxy-4-hydroxymethyl-2-cyclohexenyl]guanine]",Cytotoxic concentration required to reduce cell growth by 50%,HEL [1],>20 µg/mL
same,IC50,VZV (OKA),1.9 µg/mL
same,Selectivity index,VZV (OKA),>10
same,IC50,VZV (TK−YS/R),6.8 µg/mL
same,Selectivity index,VZV (TK−YS/R),>3
same,IC50,VZV (TK−07/1),5.8 µg/mL
same,Selectivity index,VZV (TK−07/1),>3
same,Potency relative to D-cyclohexene G (fold lower),VZV and CMV,about 2 fold
same,IC50,VZV (YS); [4],1.2 µg/mL
same,Selectivity index,VZV (YS); VZV (YS),>16
same,melting point,,255 °C (dec.)
same,Cytotoxicity (concentration),HEL [2],>20 µg/mL
same,Toxicity in four different cell lines,"HeLa, Vero, E6SM, HEL",did not show toxicity
same,Selectivity index,CMV (AD 169),>13
same,IC50,CMV (AD 169),1.5 µg/mL
same,Selectivity index,CMV (Davis),>12
same,IC50,CMV (Davis),1.7 µg/mL
same,Minimum cytotoxic concentration causing a microscopically detectable alteration of cell morphology,HeLa,400 μg/ml
same,Minimum cytotoxic concentration causing a microscopically detectable alteration of cell morphology,[3]; E8SM,>18 μg/ml
same,Minimum cytotoxic concentration causing a microscopically detectable alteration of cell morphology,Vero,400 μg/ml
same,Selectivity index,HSV-1 (McIntyre),>4.10^3
same,IC50,HSV-1 (McIntyre),0.004 µg/mL
same,Selectivity index,HSV-1 (TK−/TKf VMW1837),>1.6 10^3
same,IC50,HSV-1 (TK−/TKf VMW1837),0.01 µg/mL
same,Selectivity index,HSV-1 (TK−KOS ACVf),>12
same,IC50,HSV-1 (TK−KOS ACVf),1.28 µg/mL
same,Selectivity index,HSV-2 (196),>1.6 10^2
same,IC50,HSV-2 (196),0.1 µg/mL
same,Selectivity index,HSV-1 (KOS),>5.10^3
same,IC50,HSV-1 (KOS),0.003 µg/mL
same,Selectivity index,HSV-2 (G),>2.2 10^2
same,IC50,HSV-2 (G),0.07 µg/mL
same,Selectivity index,HSV-1 (F),>5.10^3
same,IC50,HSV-1 (F),0.003 µg/mL
same,Selectivity index,HSV-2 (Lyons),>2.2 10^2
same,IC50,HSV-2 (Lyons),0.07 µg/mL

# — US20080176813A1, “CARBOCYCLIC NUCLEOSIDES AND PROCESS FOR OBTAINING SUCH” (STICHTING REGA VZW, priority 1999, published 2008)
